Measured values published in patent US10711247B2, “Method for reducing pluripotent stem cells, method for producing cell population having reduced pluripotent stem cells” (TOKYO WOMEN'S MEDICAL UNIVERSITY, priority 2015, dated 2020).
Like-named read-outs stand apart in the source and are kept apart here.

What was measured:
feeder-less iPS cells [1] = test system: feeder-less iPS cells
Method: (§1) FIGS. 8A and 8B indicate the results of culturing iPS cells cultured on laminin E8 fragments following the addition of capsaicin. Vehicle-1 represents the control used in the experiment in which capsaicin was added at 2×10^−4 M, Vehicle-2 represents the control used in the experiment in which capsaicin was added at 1×10^−4 M, and Vehicle-3 represents the control used in the experiment in which capsaicin was added at 1×10^−5 M. The upper panels in FIG. 8A indicates phase-contrast images and the bars represent 100 μm. The middle panels indicate Hoechst staining images and the bars represent 200 μm. The lower panels indicate montage images of 36 fields (6×6) of the Hoechst staining images. FIG. 8B is a graph indicating the numbers of cells in 36 fields under each condition.
(§2) Human iPS cell lines 253G1 and 2017 were purchased from RIKEN (Ibaraki, Japan). Transfer of human iPS cell line 1231A3 was received from Kyoto University.

[2] = test system: iPS cell-derived cardiomyocytes; experiment: iPS cell-derived cardiomyocytes cultured in medium containing capsaicin; assay type: cell-based, human
Method: Prior to seeding the cells, the surface of a temperature-responsive culture dish (Upcell®, CellSeed Inc., Tokyo, Japan) or cell culture dish (Corning, Inc., Corning, N.Y., USA) was coated with fetal bovine serum (FBS) for 2 hours. After the iPS cells were induced to differentiate into cardiomyocytes, the cells were detached using 0.05% trypsin/EDTA and the cell aggregates were broken up into single cells using a strainer (BD Biosciences, Inc., San Jose, Calif., USA), followed by seeding in a culture dish at 2.1×10^5 cells/cm^2 using DMEM medium (Sigma-Aldrich Corp., St. Louis, Mo., USA) containing 10% FBS and culturing in a humidified atmosphere at 37° C. and 5% CO2. In several of the experiments, the cells were treated with puromycin (Sigma-Aldrich Corp., 1.5 μg/mL) for 1 day to purify the iPS cell-derived cardiomyocytes (strain 201B7, αMHC-puro/Rex1-neo).

feeder-less iPS cells [3] = experiment: feeder-less iPS cells cultured with TRPV-1 agonists, number of cells in 36 fields (Hoechst staining); details: feeder-less iPS cells on laminin E8 fragments
Method: as §1, §2

CCCCCCCC/C=C\CCCCCCCC(=O)NCCc1ccc(O)c(O)c1 [OLDA, N-oleoyldopamine]
cytotoxic activity against iPS cells (feeder-less iPS cells [1]): demonstrated cytotoxic activity against iPS cells

COc1cc(CNC(=O)CCCC/C=C/C(C)C)ccc1O [capsaicin]
independent pulsation of the cardiomyocytes ([2]; capsaicin 200 μM and 100 μM (concentrations toxic to iPS cells)): maintained
numbers of Nkx2.5-positive cells ([2]; capsaicin 200 μM and 100 μM, compared with vehicle (FIGS. 8C and 8D)): no changes
number of cells (feeder-less iPS cells [3]; capsaicin 2×10^−4 M, 1×10^−4 M, 1×10^−5 M vs vehicle (FIGS. 8A and 8B)): significantly decreased concentration-dependently

CCCCC/C=C\C/C=C\C/C=C\C/C=C\CCCC(=O)NCc1ccc(O)c(OC)c1 [arvanil]
cytotoxic activity against iPS cells (feeder-less iPS cells [3]; FIGS. 9 and 10): demonstrated cytotoxic activity against iPS cells
